Results: US6207683A, “Benzocycloheptathiophene compounds” (Bridge Pharma, Inc., priority 1999, dated 2001)
Counter-ions that a name gives are not always drawn. Like-named read-outs stand apart in the source and are kept apart here.

Key:
[1] = biological target: T1, histamine H1 -receptors (membranes from bovine cerebellum) (Bos taurus, UniProt P30546); test: [^3 H]pyrilamine binding assay, histamine H1-receptors
T1 construct: membranes from bovine cerebellum; from tissue; host or cells: bovine cerebellum membranes
Method: 1. Binding to histaminergic receptors
The affinities of the test compounds for histamine H1 -receptors were assessed using the [^3 H]pyrilamine binding assay, modified after Chang et al. Heterogeneity of Histamine H1 -Receptors. J. Neurochem. 1979, 32: 1653-1663 Briefly, membranes from bovine cerebellum were incubated with [^3 H]pyrilamine and the test compound at increasing concentrations. The specific binding of the radioactive ligand to the receptor was defined as the difference between total binding and nonspecific binding, determined in the presence of an excess of unlabelled ligand. IC50 values (concentration required to inhibit 50% of specific binding of [^3 H]pyrilamine) were determined by non linear regression analysis of the competition curves.

[2] = biological target: T2, muscarinic M1 -receptors (bovine striatal membranes) (Bos taurus, UniProt F1N5C5); test: biochemical; assay type: binding
T2 sequence (F1N5C5 1-460): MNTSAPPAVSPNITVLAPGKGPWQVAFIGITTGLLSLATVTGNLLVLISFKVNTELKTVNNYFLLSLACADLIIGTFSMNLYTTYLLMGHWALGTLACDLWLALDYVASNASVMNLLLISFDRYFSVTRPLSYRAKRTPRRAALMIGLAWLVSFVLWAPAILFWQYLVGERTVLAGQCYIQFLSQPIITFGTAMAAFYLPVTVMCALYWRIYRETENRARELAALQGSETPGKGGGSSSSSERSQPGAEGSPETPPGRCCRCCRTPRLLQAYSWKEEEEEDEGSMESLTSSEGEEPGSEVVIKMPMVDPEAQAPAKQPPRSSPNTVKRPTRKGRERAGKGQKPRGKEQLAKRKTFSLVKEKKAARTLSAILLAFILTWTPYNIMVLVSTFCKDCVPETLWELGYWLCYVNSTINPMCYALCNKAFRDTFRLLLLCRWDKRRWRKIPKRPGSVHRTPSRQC
Method: 2. Binding to muscarinic receptors
The affinities of the test compounds for muscarinic M1 -receptors were assessed using the [^3 H]pirenzepine binding assay, modified after Luthin et al. [^3 H]Pirenzepine and [^3 H]QNB binding to brain muscarinic cholinergic receptors. Molec. Pharmac. 1984, 26: 164-169. Briefly, the experiments were carried out on bovine striatal membranes expressing muscarinic M1 -receptors. After incubation with the test article and the proper radioligand and washing, bound radioactivity is determined with a […], using a commercial scintillation cocktail. The specific radioligand binding to each receptor is defined as the difference between total binding and nonspecific binding determined in the presence of an excess of unlabelled ligand. IC50 values (concentrations required to inhibit 50% of specific binding) were determined by non linear regression analysis of the competition curves.

[3] = test system: physostigmine-induced lethality; test: Physostigmine-induced lethality test (sedative effects); assay type: in vivo; conditions: survivors of 10 mice 30 min after physostigmine 1.9 mg/kg s.c.; oral treatment 60 min before, mg/kg: Ketotifen 107, Nor-ketotifen 83, Example 2 94, Example 5 108, Astemizole 115
Method: 3. Studies on sedative effects
The physostigmine-induced lethality test used in these tests is a modification of the sedation test technique reported by COLLIER et al., in Br. J. Pharmac., 1968, 32: 295-310. In short, physostigmine (1.9 mg/kg s.c.) produces 100% lethality when given to grouped mice with 10 animals in each plastic cage (approx. 11×26×13 cm). Mice administered a sedating antihistamine prior to physostigmine are protected and survive. In the present study, test compounds were administered orally 60 minutes prior to physostigmine. The number of survivors were counted 30 minutes after physostigmine administration. The doses in the CNS test were half of the molecular weights of the test compounds, expressed in mg/kg body weight.

[4] = Sedative activity (general statement); assay type: in vivo; conditions: statement in words
[5] = inhibition of 50% of specific binding of [^3 H]pyrilamine, bovine cerebellum membranes, read-out: IC50
[6] = inhibition of 50% of specific [^3 H]pirenzepine binding, bovine striatal membranes, read-out: IC50

T1 sequence (P30546 whole entry): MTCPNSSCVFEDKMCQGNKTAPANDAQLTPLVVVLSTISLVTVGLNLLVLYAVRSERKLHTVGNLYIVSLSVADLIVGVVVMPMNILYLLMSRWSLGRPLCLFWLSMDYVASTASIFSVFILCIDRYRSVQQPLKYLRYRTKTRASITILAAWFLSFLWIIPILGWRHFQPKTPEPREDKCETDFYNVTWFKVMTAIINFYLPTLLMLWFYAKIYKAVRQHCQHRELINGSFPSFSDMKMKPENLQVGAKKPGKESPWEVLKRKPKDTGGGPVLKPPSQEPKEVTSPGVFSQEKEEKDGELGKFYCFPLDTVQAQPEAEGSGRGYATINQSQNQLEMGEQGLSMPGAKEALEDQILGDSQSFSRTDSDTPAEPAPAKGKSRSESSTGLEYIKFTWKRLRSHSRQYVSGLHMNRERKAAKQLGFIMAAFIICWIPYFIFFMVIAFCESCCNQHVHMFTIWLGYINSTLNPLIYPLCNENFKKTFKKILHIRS

| SMILES | IC50 [1, 5] | IC50 [2, 6] | Survived [3] | other results |
| --- | --- | --- | --- | --- |
| O=C(O)COCCN1CCC(=C2c3ccccc3CC(=O)c3sccc32)CC1 [Example 5] | 69.5 nM | 880 nM | 0/10 | – |
| Cc1ccc(/C(=C\CN2CCCC2)c2ccccn2)cc1 [TRIPROLIDINE HCl] | 14.1 nM | – | – | – |
| O=C1Cc2ccccc2C(=C2CCN(CCO)CC2)c2ccsc21 [Example 2] | 5.85 nM | 235 nM | 3/10 | – |
| COc1ccc(CCN2CCC(Nc3nc4ccccc4n3Cc3ccc(F)cc3)CC2)cc1 [Astemizole] | – | – | 1/10 | – |
| CN1CCC(=C2c3ccccc3CC(=O)c3sccc32)CC1 [Ketotifen, ketotifen] | – | – | 9/10 | sedative activity / sedative side effects [4]: profound sedative side effects |
| O=C1Cc2ccccc2C(=C2CCNCC2)c2ccsc21 [Norketotifen, 4-(4-piperidylidene)-9,10-dihydro-4 H-benzo[4,5]cyclo-hepta[1,2-] thiophene-10-one] | – | 261 nM | 3/10 | IC50 [1]: 43.6 nM |
| CN1[C@@H]2CC[C@H]1C[C@@H](OC(=O)C(CO)c1ccccc1)C2 (stereo partly drawn) [ATROPINE Sulfate] | – | – | – | IC50 [2]: 0.574 nM |
| OC1Cc2ccccc2C(=C2CCNCC2)c2ccsc21 (stereo not drawn) [10-OH-NORKETOTIFEN, 10-OH-norketotifen] | 113 nM | – | – | – |
